Test results: US7071168B2, “Anti-cancer compounds and methods related thereto” (The Regents of the University of Colorado, priority 1998, dated 2006)

Legend:
SCLC strain SHP-77 = experiment: Colorimetric tetrazolium (MTT) assay for cell survival, SCLC strain SHP-77; type: cell-based, human
Protocol: In general, Anti-bradykinin activity was determined by the classical guinea pig ileum assay and on Chinese hamster ovary (CHO) cells expressing cloned human bradykinin B2 receptors. Anti-tumor activity was determined on cultured human cancer cell lines using the standard tetrazolium (MTT) assay.
Cell growth and survival were measured by a rapid colorimetric assay based on the tetrazolium salt MTT (3-(4,5-dimethylthiazol-2-yl)-2,5-diphenyl tetrazolium bromide) (Mosmann, J Immunol. Methods 65: 55–63, 1983, with minor modifications). Briefly, 1,000 normal lung fibroblasts or normal epithelial BEAS-2B cells, 1,000 or 5,000 viable non-SCLC cells or 10,000 viable SCLC cells were plated in 100 μL of growth medium in 96-well flat-bottomed microtiter plates. Cells were incubated overnight to allow recovery. Compounds to be tested were added to the cells in triplicate in a range of concentrations and the cells were incubated at 37° C., 5% CO2, with 100% humidity. Control cells were treated in the same way without antagonists. […] Plates were incubated for 4 days, allowing sufficient time for cell replication and compound-induced cell death to occur. On day 5, 25 μL of a 2 mg/mL solution of MTT (Sigma) dissolved in RMPI-1640was added to each well. The plate was incubated for 4 h at 37° C. The supernate was removed and the blue formazan complex was dissolved by adding 100 μL of 0.02 N HCl in 75% isopropanol to all wells. Absorbance was immediately determined using a scanning multiwell plate reader. B9870 caused 50% cell death at a concentration of 0.15 μM under these conditions.

[1] = tested on: bradykinin response of isolated guinea pig ileum; experiment: Anti-bradykinin activity on isolated guinea pig ileum; conditions: higher numbers indicate higher potency
Outline: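 Terminal ileum segments (25 mm) from overnight-fasted male Hartley guinea pigs, in Krebs' solution gassed with 95% O2/5% CO2 under 1 g tension, equilibrated 1 h. Bradykinin concentration-effect curves constructed without and with test compounds.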

[2] = isolated guinea pig ileum, pD2 of bradykinin is 7.4

Molecule	MTT: ED50 for killing of SCLC strain SHP-77 in vitro (SCLC strain SHP-77; SCLC strain SHP-77 in vitro)	GPI: pA2 for bradykinin antagonist activity on isolated guinea pig ileum [1, 2]	MTT: ED50 for killing of SCLC strain SHP-77 in vitro (SCLC strain SHP-77; Table 1, SHP-77, MTT, 4 days) [nM]	GPI: pA2 for bradykinin antagonist activity on isolated guinea pig ileum ([1]; Table 1)
CC1(C)CC(NC(=O)C(Cc2ccc3ccccc3c2)NC(=O)COc2c(F)c(F)c(F)c(F)c2F)CC(C)(C)N1 (centres unmarked) [M568]	10000 nM	5.8	–	–
CN(C(=O)C(Cc1ccc(OCc2c(Cl)cccc2Cl)cc1)NC(=O)C=Cc1c(F)c(F)c(F)c(F)c1F)C1CC(C)(C)NC(C)(C)C1 (centres unmarked) [M592]	1500 nM	4.9	–	–
CCOC(=O)N1CCC(NC(=O)C(Cc2ccc3ccccc3c2)NC(=O)C=Cc2ccc(N)cc2)CC1 (centres unmarked) [M604]	43000 nM	4.5	–	–
CC1(C)CC(NC(=O)C(Cc2cccc3ccccc23)NC(=O)C=Cc2ccc(NC(=O)CCCCCCCCCCC(=O)Nc3ccc(C=CC(=O)NC(Cc4cccc5ccccc45)C(=O)NC4CC(C)(C)NC(C)(C)C4)cc3)cc2)CC(C)(C)N1 (centres unmarked) [M616]	1400 nM	5.4	–	–
CN(C(=O)C(Cc1ccc(OCc2c(Cl)cccc2Cl)cc1)NC(=O)C=Cc1c(F)c(F)c(F)c(F)c1F)C1CC(C)(C)N(C)C(C)(C)C1 (centres unmarked) [M622]	1200 nM	5.7	–	–
CN(C)c1cccc2c(S(=O)(=O)NC(Cc3ccc(OCc4c(Cl)cccc4Cl)cc3)C(=O)N(C)C3CC(C)(C)NC(C)(C)C3)cccc12 (centres unmarked) [M624]	1400 nM	5.1	–	–
CN(C(=O)C(Cc1ccc(OCc2c(Cl)cccc2Cl)cc1)NC(=O)C=Cc1cccnc1)C1CC(C)(C)NC(C)(C)C1 (centres unmarked) [M626]	3700 nM	4.8	–	–
CN(C(=O)C(Cc1ccc(OCc2c(Cl)cccc2Cl)cc1)NC(=O)C=Cc1ccccc1)C1CC(C)(C)NC(C)(C)C1 (centres unmarked) [M628]	1600 nM	5.2	–	–
CN(C)c1ccc(C=CC(=O)NC(Cc2ccc(OCc3c(Cl)cccc3Cl)cc2)C(=O)N(C)C2CC(C)(C)NC(C)(C)C2)cc1.O=C(O)C(F)(F)F (centres unmarked) [M630, Dmac-OC2Y-Matp.TFA]	1600 nM	5.0	–	–
CN(C(=O)[C@H](Cc1ccc(OCc2c(Cl)cccc2Cl)cc1)NC(=O)c1nc(Cl)c(Cl)c(N)c1Cl)C1CC(C)(C)NC(C)(C)C1 [M632]	1400 nM	5.4	–	–
CC1(C)CC(NC(=O)C(Cc2ccc(NS(C)(=O)=O)cc2)NC(=O)C=Cc2c(F)c(F)c(F)c(F)c2F)CC(C)(C)N1 (centres unmarked) [M648]	Inact	5.0	–	–
CN(C(=O)C(Cc1ccc(OCc2c(Cl)cccc2Cl)cc1)NC(=O)CCc1ccccc1)C1CC(C)(C)N(C)C(C)(C)C1 (centres unmarked) [M652]	7500 nM	5.7	–	–
CC1=C(CC(=O)NC2CC(C)(C)NC(C)(C)C2)c2cc(F)ccc2C1=Cc1ccc([S+](C)[O-])cc1 (centres unmarked) [M654]	Inact	4.5	–	–
CC1=C(CC(=O)NC(Cc2ccc3ccccc3c2)C(=O)NC2CC(C)(C)NC(C)(C)C2)c2cc(F)ccc2C1=Cc1ccc([S+](C)[O-])cc1 (centres unmarked) [M656]	13000 nM	5.4	–	–
CC1(C)CC(NC(=O)C(NC(=O)C=Cc2c(F)c(F)c(F)c(F)c2F)C(C)(C)C)CC(C)(C)N1 (centres unmarked) [M662]	Inact	5.2	–	–
CN(C(=O)C(Cc1cc(I)c(OCc2c(Cl)cccc2Cl)c(I)c1)NC(=O)C=Cc1c(F)c(F)c(F)c(F)c1F)C1CC(C)(C)NC(C)(C)C1 (centres unmarked) [M664]	1200 nM	5.0	–	–
CN(C)c1cccc2c(S(=O)(=O)NC(Cc3cc(I)c(OCc4c(Cl)cccc4Cl)c(I)c3)C(=O)N(C)C3CC(C)(C)NC(C)(C)C3)cccc12 (centres unmarked) [M666]	1300 nM	5.0	–	–
CN(C)c1ccc(CNC(=O)C(Cc2ccc(F)cc2)NC(=O)C=Cc2c(F)c(F)c(F)c(F)c2F)cc1 (centres unmarked) [M832]	47000 nM	4.6	–	–
(DArg-Arg-Pro-Hyp)2Dpr-Igl-Ser-DIgl-Oic-Arg [B10098]	–	–	20000	5.3
